Test results from patent publication US9718828B2 (MERCK SHARP & DOHME CORP., priority 2011, dated 2017).
Structures can show the parent of a compound that is named as a salt.

Molecular target: hBTK (full-length BTK, 6HIS-tag cleaved) (Homo sapiens (Human), UniProt Q06187)
Experiment: BTK enzymatic activity, LANCE TR-FRET assay (Assay Method C)
Format: biochemical
Details: LANCE TR-FRET, 50 pM hBTK, 25 μM ATP; class 100-1000 is given as ≧100 nM-<1 μM; read-out: IC50 Btk activity values - Assay Method C

hBTK (full-length BTK, 6HIS-tag cleaved), sequence (Q06187 whole entry): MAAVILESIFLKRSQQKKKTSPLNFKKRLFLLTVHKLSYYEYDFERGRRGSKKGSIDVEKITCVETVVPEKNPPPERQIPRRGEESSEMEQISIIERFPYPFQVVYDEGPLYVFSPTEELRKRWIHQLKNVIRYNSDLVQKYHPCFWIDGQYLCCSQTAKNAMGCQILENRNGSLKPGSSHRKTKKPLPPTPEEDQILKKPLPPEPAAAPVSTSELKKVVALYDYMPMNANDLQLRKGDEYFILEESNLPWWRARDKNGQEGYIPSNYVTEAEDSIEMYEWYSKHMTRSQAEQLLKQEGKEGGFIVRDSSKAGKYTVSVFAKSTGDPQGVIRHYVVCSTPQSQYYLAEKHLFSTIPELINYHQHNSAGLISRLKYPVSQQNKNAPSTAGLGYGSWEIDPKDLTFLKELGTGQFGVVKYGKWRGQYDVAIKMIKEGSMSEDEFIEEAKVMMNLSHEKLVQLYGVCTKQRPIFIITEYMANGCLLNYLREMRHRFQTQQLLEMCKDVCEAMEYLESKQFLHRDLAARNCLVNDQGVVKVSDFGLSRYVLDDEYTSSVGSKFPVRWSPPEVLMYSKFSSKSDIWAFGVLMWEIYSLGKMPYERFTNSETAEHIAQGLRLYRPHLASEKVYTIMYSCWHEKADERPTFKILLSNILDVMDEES

IC50, < 10 nM:
Nc1nccn2c([C@H]3CC[C@H](C(F)(F)F)N(CCO)C3)nc(-c3ccc(C(=O)Nc4cc(C(F)(F)F)ccn4)cc3)c12 [Example 437, 4-{8-amino-3-[(3S,6R)-1-(2-hydroxyethyl)-6-(trifluoromethyl)piperidin-3-yl]imidazo[1,5-a]pyrazin-1-yl}-N-[4-(trifluoromethyl)pyridin-2-yl]benzamide]
CC1(C(=O)N2CCC[C@@H](c3nc(-c4ccc(C(=O)Nc5ccc(C#N)cn5)cc4)c4c(N)nccn34)C2)COC1 [Example 327, 4-(8-amino-3-{(3R)-1-[(3-methyloxetan-3-yl)carbonyl]piperidin-3-yl}imidazo[1,5-a]pyrazin-1-yl)-N-(5-cyanopyridin-2-yl)benzamide]
CC1(C(=O)N2CCC[C@@H](c3nc(-c4ccc(C(=O)Nc5cc(C(F)(F)F)ccn5)cc4F)c4c(N)ncc(Cl)n34)C2)COC1 [Example 447, 4-(8-amino-5-chloro-3-{(3R)-1-[(3-methyloxetan-3-yl)carbonyl]piperidin-3-yl}imidazo[1,5-a]pyrazin-1-yl)-3-fluoro-N-[4-(trifluoromethyl)pyridin-2-yl]benzamide]
CC1(CN2CCO[C@@H](c3nc(-c4ccc(C(=O)Nc5cc(C(F)(F)F)ccn5)cc4)c4c(N)nccn34)C2)COC1 [Example 507, 4-(8-amino-3-{(2R)-4-[(3-methyloxetan-3-yl)methyl]morpholin-2-yl}imidazo[1,5-a]pyrazin-1-yl)-N-[4-(trifluoromethyl)pyridin-2-yl]benzamide]
Nc1nccn2c([C@@H]3CCCN(C(=O)c4cnccn4)C3)nc(-c3ccc(C(=O)Nc4cc(C(F)(F)F)ccn4)cc3)c12 [Example 336, 4-{8-amino-3-[(3R)-1-(pyrazin-2-ylcarbonyl)piperidin-3-yl]imidazo[1,5-a]pyrazin-1-yl}-N-[4-(trifluoromethyl)pyridin-2-yl]benzamide]
CC1(C(=O)N2CCC[C@@H](c3nc(-c4ccc(C(=O)Nc5cc(C(F)(F)F)ccn5)cc4)c4c(N)ncc(C(F)(F)F)n34)C2)COC1 [Example 470, 4-[8-amino-3-{(3R)-1-[(3-methyloxetan-3-yl)carbonyl]piperidin-3-yl}-5-(trifluoromethyl)imidazo[1,5-a]pyrazin-1-yl]-N-[4-(trifluoromethyl)pyridin-2-yl]benzamide]
CC1(C(=O)N2CCC[C@@H](c3nc(-c4ccc(C(=O)Nc5cc(C(C)(F)F)ccn5)cc4F)c4c(N)nccn34)C2)COC1 [Example 484, 4-(8-amino-3-{(3R)-1-[(3-methyloxetan-3-yl)carbonyl]piperidin-3-yl}imidazo[1,5-a]pyrazin-1-yl)-N-[4-(1,1-difluoroethyl)pyridin-2-yl]-3-fluorobenzamide]
Cc1cnc(N)c2c(-c3ccc(C(=O)Nc4cc(C(F)F)ccn4)cc3F)nc([C@@H]3CC[C@H](C)N(C(=O)C4(C)COC4)C3)n12 [Example 462, 4-(8-amino-5-methyl-3-{(3R,6S)-6-methyl-1-[(3-methyloxetan-3-yl)carbonyl]piperidin-3-yl}imidazo[1,5-a]pyrazin-1-yl)-N-[4-(difluoromethyl)pyridin-2-yl]-3-fluorobenzamide]
CCC(=O)N1CCC[C@@H](c2nc(-c3ccc(C(=O)Nc4cc(OC)ccn4)cc3)c3c(N)nccn23)C1 [Example 372, 4-{8-amino-3-[(3R)-1-propanoylpiperidin-3-yl]imidazo[1,5-a]pyrazin-1-yl}-N-(4-methoxypyridin-2-yl)benzamide]
Cc1cc(NC(=O)c2ccc(-c3nc([C@@H]4CCCN(C(=O)C5(C)COC5)C4)n4ccnc(N)c34)cc2)ncc1F [Example 360, 4-(8-amino-3-{(3R)-1-[(3-methyloxetan-3-yl)carbonyl]piperidin-3-yl}imidazo[1,5-a]pyrazin-1-yl)-N-(5-fluoro-4-methylpyridin-2-yl)benzamide]
CC(=O)N1CCC[C@@H](c2nc(-c3ccc(C(=O)Nc4cc(C(F)(F)F)ccn4)cc3)c3c(N)ncc(Cl)n23)C1 [Example 440, 4-{3-[(3R)-1-acetylpiperidin-3-yl]-8-amino-5-chloroimidazo[1,5-a]pyrazin-1-yl}-N-[4-(trifluoromethyl)pyridin-2-yl]benzamide]
Nc1nccn2c(C3CCC(C(F)(F)F)N(C(=O)C4CC4)C3)nc(-c3ccc(C(=O)Nc4cc(C(F)(F)F)ccn4)cc3F)c12 (centres unmarked) [Example 399, 4-{8-amino-3-[1-(cyclopropylcarbonyl)-6-(trifluoromethyl)piperidin-3-yl]imidazo[1,5-a]pyrazin-1-yl}-3-fluoro-N-[4-(trifluoromethyl)pyridin-2-yl]benzamide]
Nc1nccn2c([C@@H]3CCCN(C(=O)C4CC4(F)F)C3)nc(-c3ccc(C(=O)Nc4cc(C(F)(F)F)ccn4)cc3)c12 (stereo partly drawn) [Example 344, 4-(8-amino-3-{(3R)-1-[(2,2-difluorocyclopropyl)carbonyl]piperidin-3-yl}imidazo[1,5-a]pyrazin-1-yl)-N-[4-(trifluoromethyl)pyridin-2-yl]benzamide]
CN(C)CC(=O)N1CCC[C@@H](c2nc(-c3ccc(C(=O)Nc4cc(C(F)(F)F)ccn4)cc3)c3c(N)nccn23)C1 [Example 347, 4-{8-amino-3-[(3R)-1-(N,N-dimethylglycyl)piperidin-3-yl]imidazo[1,5-a]pyrazin-1-yl}-N-[4-(trifluoromethyl)pyridin-2-yl]benzamide]
CCOCC(=O)N1CCO[C@@H](c2nc(-c3ccc(C(=O)Nc4cc(C(F)(F)F)ccn4)cc3)c3c(N)nccn23)C1 [Example 518, 4-{8-amino-3-[(2R)-4-(ethoxyacetyl)morpholin-2-yl]imidazo[1,5-a]pyrazin-1-yl}-N-[4-(trifluoromethyl)pyridin-2-yl]benzamide]
CC(=O)N1CCC[C@@H](n2nc(-c3ccc(C(=O)Nc4cc(C(F)(F)F)ccn4)cc3)c3c(N)nccc32)C1 [Example 385, 4-{1-[(3R)-1-acetylpiperidin-3-yl]-4-amino-1H-pyrazolo[4,3-c]pyridin-3-yl}-N-[4-(trifluoromethyl)pyridin-2-yl]benzamide]
C[C@H](O)c1cnc(N)c2c(-c3ccc(C(=O)Nc4cc(C(F)(F)F)ccn4)cc3)nc([C@@H]3CCCN(C(=O)C4(C)COC4)C3)n12 [Example 466, 4-(8-amino-5-[(1S)-1-hydroxyethyl]-3-{(3R)-1-[(3-methyloxetan-3-yl)carbonyl]piperidin-3-yl}imidazo[1,5-a]pyrazin-1-yl)-N-[4-(trifluoromethyl)pyridin-2-yl]benzamide]
CN1CCC[C@H]1C(=O)N1CCC[C@@H](c2nc(-c3ccc(C(=O)Nc4cc(C(F)(F)F)ccn4)cc3)c3c(N)nccn23)C1 [Example 341, 4-{8-amino-3-[(3R)-1-(1-methyl-L-prolyl)piperidin-3-yl]imidazo[1,5-a]pyrazin-1-yl}-N-[4-(trifluoromethyl)pyridin-2-yl]benzamide]
C[C@H]1CC[C@@H](c2nc(-c3ccc(C(=O)Nc4cc(OC5CC5)ccn4)cc3)c3c(N)nccn23)CN1C(=O)C1(C)COC1 [Example 409, 4-(8-amino-3-{(3R,6S)-6-methyl-1-[(3-methyloxetan-3-yl)carbonyl]piperidin-3-yl}imidazo[1,5-a]pyrazin-1-yl)-N-[4-(cyclopropyloxy)pyridin-2-yl]benzamide]
Nc1nccn2c([C@@H]3CCCN(C(=O)c4cnsc4)C3)nc(-c3ccc(C(=O)Nc4cc(C(F)(F)F)ccn4)cc3)c12 [Example 333, 4-{8-amino-3-[(3R)-1-(isothiazol-4-ylcarbonyl)piperidin-3-yl]imidazo[1,5-a]pyrazin-1-yl}-N-[4-(trifluoromethyl)pyridin-2-yl]benzamide]
Cn1cc2c(n1)CCC[C@@H]2n1nc(-c2ccc(C(=O)Nc3cc(C(F)(F)F)ccn3)cc2)c2c(N)ncnc21 [Example 558, 4-{4-amino-1-[(4S)-2-methyl-4,5,6,7-tetrahydro-2H-indazol-4-yl]-1H-pyrazolo[3,4-d]pyrimidin-3-yl}-N-[4-(trifluoromethyl)pyridin-2-yl]benzamide, TFA salt]
COCC(=O)N1CCO[C@@H](c2nc(-c3ccc(C(=O)Nc4cc(C(F)(F)F)ccn4)cc3F)c3c(N)nccn23)C1 [Example 551, 4-{8-amino-3-[(2R)-4-(methoxyacetyl)morpholin-2-yl]imidazo[1,5-a]pyrazin-1-yl}-3-fluoro-N-[4-(trifluoromethyl)pyridin-2-yl]benzamide, TFA salt]
C[C@@H](O)c1cnc(N)c2c(-c3ccc(C(=O)Nc4cc(C(F)(F)F)ccn4)cc3)nc([C@@H]3CCCN(C(=O)C4(C)COC4)C3)n12 [Example 465, 4-(8-amino-5-[(1R)-1-hydroxyethyl]-3-{(3R)-1-[(3-methyloxetan-3-yl)carbonyl]piperidin-3-yl}imidazo[1,5-a]pyrazin-1-yl)-N-[4-(trifluoromethyl)pyridin-2-yl]benzamide]
Cc1cnc(NC(=O)c2ccc(-c3nc([C@@H]4CCCN(C(=O)C5(C)COC5)C4)n4ccnc(N)c34)cc2)s1 [Example 366, 4-(8-amino-3-{(3R)-1-[(3-methyloxetan-3-yl)carbonyl]piperidin-3-yl}imidazo[1,5-a]pyrazin-1-yl)-N-(5-methyl-1,3-thiazol-2-yl)benzamide]

IC50, 10 to 100 nM:
Cn1ccc(NC(=O)c2ccc(-c3nc([C@@H]4CCCN(C(=O)C5(C)COC5)C4)n4ccnc(N)c34)cc2)n1 [Example 365, 4-(8-amino-3-{(3R)-1-[(3-methyloxetan-3-yl)carbonyl]piperidin-3-yl}imidazo[1,5-a]pyrazin-1-yl)-N-(1-methyl-1H-pyrazol-3-yl)benzamide]
CCN1CCO[C@H](c2nc(-c3ccc(C(=O)Nc4cc(C(F)(F)F)ccn4)cc3)c3c(N)nccn23)C1 [Example 534, 4-{8-amino-3-[(2S)-4-ethylmorpholin-2-yl]imidazo[1,5-a]pyrazin-1-yl}-N-[4-(trifluoromethyl)pyridin-2-yl]benzamide]
